Results from US20210113501A1, “METHOD OF ADMINISTERING BETA-HYDROXY-BETA-METHYLBUTYRATE (HMB)” (Metabolic Technologies, Inc., priority 2009, published 2021).

Assay: Study 2 blood chemistry
Type: in vivo, human
Conditions: for Aspartate Aminotransferase / Gamma-glutamyl: in U/L (unit assumed)
Experimental: Study 2 design. Study 2 was conducted similar to study 1 with the following modifications. In study 2, plasma levels of HMB were measured for 1440 min (24 h) and total urine collection was also performed for measurement of urinary HMB excretion during this period. After the 180 min blood sample, the subjects were allowed to leave the laboratory and were instructed to return to the laboratory for additional blood samples at 360, 720, and 1440 min after the ingestion of the supplement. As in study 1, each subject took each of the treatments with at least a one week washout period between treatments. Samples were again stored frozen at −70° C. for analysis of plasma and urinary HMB concentrations. Pre-ingestion, 180 min and 1440 min blood samples were again assayed for the same measurements already for study 1. Subjects were provided with a standardized lunch after the 180 min blood sampling and instructed to eat this at approximately 240 min post ingestion. Following the 720 min blood sample, subjects were instructed to eat a normal evening meal before 10 pm. Subjects reported back to the laboratory the following morning for the fasted 1440 min blood sample. A urine collection container was provided and subjects collected all urine produced during the experimental 24 h experimental period. The urine was stored refrigerated when not being collected. Urine volumes were measured and samples of the total urine collection were taken and stored frozen at −70° C. until analyzed for HMB.
The data were analyzed using a crossover design with Proc GLM in SAS. (45) For the timed sampling of plasma HMB a repeated measures polynomial model was used. The model included subject, order, and treatment main effects and time by treatment interaction where appropriate. For other parameters Proc GLM was also used with subject, order, and treatment main effects and the p values are reported for the treatment main effect. Statistical significance was determined for p<0.05 and a trend was determined for 0.05<p<0.10.

With `CC(C)(O)CC(=O)[O-].CC(C)(O)CC(=O)[O-].[Ca+2]` [CaHMB, calcium β-hydroxy-β-methylbutryate, reference compound] the “A:G Ratio” value (After (24 h)) was 1.8 ± 0.1, the “Alanine Aminotransferase” value (After (24 h)) was 14.9 ± 2.2 IU/L and the Albumin (After (24 h)) was 4.2 ± 0.1 g/dL. For the same compound, the “Alkaline Phosphatase” value (After (24 h)) was 66.8 ± 6.9 IU/L, the “Blood Urea Nitrogen” value (After (24 h)) was 13.4 ± 1.0 mg/dL and the CO2 (After (24 h)) was 27.3 ± 0.6 mEq/L. The Chloride (After (24 h)) was 103.0 ± 0.5 mEq/L, the “Cholesterol Ratio” value (After (24 h)) was 3.1 ± 0.2 and the Creatinine (After (24 h)) was 1.0 ± 0.1 mg/dL. For the same compound, the “Direct Bilirubin” value (After (24 h)) was 0.1 ± 0.04 mg/dL, the Globulin (After (24 h)) was 2.4 ± 0.1 g/dL and the Glucose (After (24 h)) was 80.3 ± 2.4 mg/dL. For the same compound, the HDL (After (24 h)) was 54.0 ± 3.5 mg/dL, the Iron (After (24 h)) was 59.9 ± 12.2 µg/dL and the “Iron Binding Capacity” value (After (24 h)) was 377.5 ± 30.3 µg/dL. The “Iron Saturation” value (After (24 h)) was 17.5 ± 4.2%, the LDL (After (24 h)) was 88.6 ± 5.9 mg/dL and the “Lactate Dehydrogenase” value (After (24 h)) was 142.4 ± 10.5 IU/L. The Phosphorus (After (24 h)) was 4.4 ± 0.1 mg/dL, the Potassium (After (24 h)) was 4.7 ± 0.1 mEq/L and the Protein (After (24 h)) was 6.5 ± 0.2 g/dL. For the same compound, the Sodium (After (24 h)) was 141.4 ± 0.5 mEq/L, the “Total Bilirubin” value (After (24 h)) was 0.5 ± 0.2 mg/dL and the “Total Cholesterol” value (After (24 h)) was 162.9 ± 7.1 mg/dL. For the same compound, the Triglycerides (After (24 h)) was 106.9 ± 17.6 mg/dL, the UIBC (After (24 h)) was 317.6 ± 38.3 µg/dL and the “Uric Acid” value (After (24 h)) was 4.2 ± 0.5 mg/dL. The “Aspartate Aminotransferase” value (After (24 h)) was 20.0 ± 1.1, the Gamma-glutamyl (After (24 h)) was 14.3 ± 1.4 and the “A:G Ratio” value (Before) was 1.9 ± 0.1. The “Alanine Aminotransferase” value (Before) was 15.4 ± 1.8 IU/L, the Albumin (Before) was 4.1 ± 0.1 g/dL and the “Alkaline Phosphatase” value (Before) was 65.5 ± 7.3 IU/L. For the same compound, the “Blood Urea Nitrogen” value (Before) was 14.8 ± 1.4 mg/dL, the CO2 (Before) was 24.9 ± 0.6 mEq/L and the Chloride (Before) was 102.4 ± 0.5 mEq/L. For the same compound, the “Cholesterol Ratio” value (Before) was 3.1 ± 0.2, the Creatinine (Before) was 1.0 ± 0.1 mg/dL and the “Direct Bilirubin” value (Before) was 0.2 ± 0.1 mg/dL. The Globulin (Before) was 2.2 ± 0.1 g/dL, the Glucose (Before) was 70.8 ± 0.8 mg/dL and the HDL (Before) was 52.3 ± 2.7 mg/dL. The Iron (Before) was 99.0 ± 20.0 µg/dL, the “Iron Binding Capacity” value (Before) was 371.8 ± 28.6 µg/dL and the “Iron Saturation” value (Before) was 28.4 ± 5.8%. For the same compound, the LDL (Before) was 88.6 ± 7.2 mg/dL, the “Lactate Dehydrogenase” value (Before) was 161.8 ± 12.6 IU/L and the Phosphorus (Before) was 4.0 ± 0.1 mg/dL. For the same compound, the Potassium (Before) was 4.1 ± 0.1 mEq/L, the Protein (Before) was 6.4 ± 0.2 g/dL and the Sodium (Before) was 139.5 ± 0.8 mEq/L. The “Total Bilirubin” value (Before) was 0.6 ± 0.1 mg/dL, the “Total Cholesterol” value (Before) was 160.4 ± 8.0 mg/dL and the Triglycerides (Before) was 97.4 ± 12.5 mg/dL. For the same compound, the UIBC (Before) was 272.8 ± 39.5 µg/dL, the “Uric Acid” value (Before) was 4.8 ± 0.3 mg/dL and the “A:G Ratio % Change” value (Before to After) was −3.4%. For the same compound, the “Alanine Aminotransferase % Change” value (Before to After) was −3.3%, the “Albumin % Change” value (Before to After) was 0.6% and the “Alkaline Phosphatase % Change” value (Before to After) was 1.9%. The “Aspartate Aminotransferase % Change” value (Before to After) was −11.6%, the “Blood Urea Nitrogen % Change” value (Before to After) was −9.3% and the “CO2 % Change” value (Before to After) was 9.5%. The “Chloride % Change” value (Before to After) was 0.6%, the “Cholesterol Ratio % Change” value (Before to After) was −0.8% and the “Creatinine % Change” value (Before to After) was −1.5%. The “Direct Bilirubin % Change” value (Before to After) was −37.4%, the “Gamma-glutamyl % Change” value (Before to After) was 1.8% and the “Globulin % Change” value (Before to After) was 6.7%. The “Glucose % Change” value (Before to After) was 13.4%, the “HDL % Change” value (Before to After) was 3.3% and the “Iron % Change” value (Before to After) was −39.5%. The “Iron Binding Capacity % Change” value (Before to After) was 1.5%, the “Iron Saturation % Change” value (Before to After) was −38.3% and the “LDL % Change” value (Before to After) was 0.0%. For the same compound, the “Lactate Dehydrogenase % Change” value (Before to After) was −12.0%, the “Phosphorus % Change” value (Before to After) was 10.6% and the “Potassium % Change” value (Before to After) was 14.8%. For the same compound, the “Protein % Change” value (Before to After) was 2.8%, the “Sodium % Change” value (Before to After) was 1.3% and the “Total Bilirubin % Change” value (Before to After) was −17.8%. The “Total Cholesterol % Change” value (Before to After) was 1.6%, the “Triglycerides % Change” value (Before to After) was 9.8% and the “UIBC % Change” value (Before to After) was 16.5%. The “Uric Acid % Change” value (Before to After) was −12.0%, the “Aspartate Aminotransferase” value (Before) was 22.6 ± 1.4 and the Gamma-glutamyl (Before) was 14.0 ± 1.9.
